Laboratory results published in ChEMBL document CHEMBL5244246, “Recent advances in chemistry and bioactivity of marine cyanobacteria Moorea species” (Eur J Med Chem, 2020).
Values after ≈ are worked out from the molar mass of the structure shown. Values joined by “and” are separate entries in the source; they are usually repeats but may differ in a detail not shown here. Equal values may be shown once.

Columns and labels:
[1] = Toxicity in brine shrimp assessed as lethal dose; conditions: artemia salina; read-out: LD50 (the source's name)
L1210 [2] = experiment: Cytotoxicity against mouse L1210 cells assessed as inhibition of cell growth; type: functional, cell-based
[3] = biological target: Protein kinase C delta type (Homo sapiens, UniProt Q05655); experiment: Inhibition of [3H]-PDBu binding to PKCdelta C1B domain (unknown origin) by competitive binding assay
[4] = Toxicity in shrimp assessed as lethal dose; conditions: palaemon paucidens
Nitzschia amabilis = experiment: Growth inhibition of marine diatom assessed as inhibition rate at 10 ug/ml relative to control; type: functional
HT-29 = experiment: Cytotoxicity against human HT-29 cells assessed as cell growth inhibition; type: functional
MDA-MB-231 = experiment: Cytotoxicity against human MDA-MB-231 cells assessed as cell growth inhibition; type: functional
[5] = test system: Mycobacterium tuberculosis; experiment: Antimycobacterial activity against Mycobacterium tuberculosis H37Rv assessed as inhibition of bacterial growth at 12.5 ug/ml relative to control; type: functional
A549 = experiment: Cytotoxicity against human A549 cells assessed as cell growth inhibition; type: functional, cell-based
MCF7 = experiment: Cytotoxicity against human MCF7 cells assessed as inhibition of cell growth; type: functional, cell-based
N2a = experiment: Cytotoxicity against mouse Neuro2a cells assessed as inhibition of cell growth; type: functional, cell-based
NCI-H460 = experiment: Cytotoxicity against human NCI-H460 cells; type: functional, cell-based
L1210 [6] = experiment: Cytotoxicity against mouse L1210 cells assessed as inhibition of cell growth at 10 ug/mL relative to control; type: functional; conditions: dose 10 µg/ml
Homo sapiens = species: Homo sapiens; experiment: Inhibition of Voltage-gated sodium channel (unknown origin) at 3 ug/ml incubated for 18 hrs by cell-based bioassay relative to control; conditions: dose 3.0 µg/ml
HeLa = experiment: Cytotoxicity against human HeLa cells assessed as inhibition of cell growth incubated for 48 hrs by WST-8 colorimetric assay; type: functional, cell-based

Protein kinase C delta type, sequence (Q05655 whole entry, the tested form may be a part): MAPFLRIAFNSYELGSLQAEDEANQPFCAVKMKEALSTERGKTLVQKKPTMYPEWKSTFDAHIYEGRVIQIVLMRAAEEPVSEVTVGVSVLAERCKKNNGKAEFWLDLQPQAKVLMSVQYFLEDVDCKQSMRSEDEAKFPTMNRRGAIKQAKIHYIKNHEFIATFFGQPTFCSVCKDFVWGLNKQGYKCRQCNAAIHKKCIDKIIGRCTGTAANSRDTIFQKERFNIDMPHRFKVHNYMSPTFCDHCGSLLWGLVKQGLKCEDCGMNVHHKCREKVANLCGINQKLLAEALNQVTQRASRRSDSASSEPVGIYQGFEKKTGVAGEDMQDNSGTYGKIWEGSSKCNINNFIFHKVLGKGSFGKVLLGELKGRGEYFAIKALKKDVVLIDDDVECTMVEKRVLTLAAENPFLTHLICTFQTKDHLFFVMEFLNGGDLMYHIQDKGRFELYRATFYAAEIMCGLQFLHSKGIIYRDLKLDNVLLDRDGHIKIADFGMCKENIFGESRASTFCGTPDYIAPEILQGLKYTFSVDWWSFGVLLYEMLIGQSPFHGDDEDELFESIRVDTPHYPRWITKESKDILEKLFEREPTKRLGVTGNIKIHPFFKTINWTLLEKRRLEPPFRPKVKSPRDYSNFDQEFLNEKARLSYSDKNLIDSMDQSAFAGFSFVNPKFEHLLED

Q: With COC(=O)C(CCC#CC=C(Cl)Cl)C(CCC/C=C/CC(Cl)Cl)NC=O (stereo not drawn) as the compound, how does the LC50 [1] read?
A: Its LC50 is 1.7 µg/mL.

Q: Which IC50 (L1210 [2]) does the source give for C=C[C@@](C)(CCC=C(C)C)c1ccc2c3c1NC(=O)[C@@]3(O)C[C@@H](CO)NC(=O)[C@@H](C(C)C)N2 here?
A: The IC50 was 321 µM.

Q: And the Ki [3]?
A: Its Ki is 0.94 µM.

Q: What about the LD33 [4] of the same compound?
A: Its LD33 is 25 mg/kg.

Q: Which inhibition at 10 µg/mL (Nitzschia amabilis) does the source give for CO[C@@H](CC[C@H](C)[C@H]1OC2=C(/C(=C/C(=O)O[C@@H]3CC(=O)O[C@@H]3C)[C@H](C)CC2(C)C)[C@H](OC)[C@@H]1C)c1cc(O)ccc1Br here?
A: Its inhibition at 10 µg/mL is 30%.

Q: With CCCCCCC[C@@H](C/C=C/CCC(=O)N(C)C/C(=C/Cl)C/C(=C\C(=O)N1CC(OC)=CC1=O)OC)OC as the compound, how does the GI50 (HT-29) read?
A: Its GI50 is 40 µM.

Q: What about the GI50 (MDA-MB-231) of the same compound?
A: Its GI50 is 40 µM.

Q: What about the inhibition at 12.5 µg/mL [5] of the same compound?
A: Its inhibition at 12.5 µg/mL is 10%.

Q: What about the GI50 (A549) of the same compound?
A: The GI50 was 40 µM.

Q: With CCCCCCCCCCCC/C=C/C[C@@H](O)[C@H](CO[C@@H]1O[C@H](CO)[C@@H](O)[C@H](O)[C@H]1O)NC(=O)CCCCCCCCCCCCCCCCCCCCCCCCC as the compound, how does the IC50 (MCF7) read?
A: Its IC50 is 18.2 µg/mL (≈ 21.7 µM).

Q: Which LC50 [1] does the source give for COC(=O)[C@H](CCC#CC=C(Cl)Cl)[C@@H](CCCC#CCC(Cl)Cl)NC=O here?
A: The LC50 was 1.7 µg/mL.

Q: With CCCCCCCC[C@@H](C/C=C/CCC(=O)N(C)C/C(=C\Cl)C/C(=C\C(=O)N1C[C@H](O)CC1=O)OC)OC as the compound, how does the IC50 (L1210 [2]) read?
A: The IC50 was 2.9 µM.

Q: What does the source list for CCC[C@H]1NC(=O)c2csc(n2)[C@H](C)NC(=O)[C@H](C(C)C)N(C)C(=O)[C@H](Cc2ccccc2)N(C)C(=O)[C@H](C)OC(=O)[C@@H]1C [ULONGAMIDE A]?
A: LC50 [1]: 18 µM; IC50 (N2a; n2a): 6 µM and 16 µM

Q: For CC(=O)n1c(=O)ccn([C@H]2C[C@H](O)[C@@H](CO)O2)c1=O, which IC50 (MCF7) is on record?
A: Its IC50 is 18.2 µg/mL (≈ 67.3 µM).

Q: With COc1ccc(C[C@@H]2NC(=O)/C(C)=C/C3CSC(=N3)[C@@H](C)[C@@H](O)C[C@H](C)C[C@@H](C(C)(C)C)OC(=O)[C@H](C)N(C)C(=O)[C@H](C(C)C)N(C)C(=O)[C@H](C)N(C)C2=O)cc1 (stereo partly drawn) as the compound, how does the IC50 (NCI-H460) read?
A: Its IC50 is 0.014 µM.

Q: With CO[C@@H](CC[C@H](C)[C@H]1O[C@@]23C[C@H](OC(=O)C[C@H]([C@@H](C)O)OC(=O)/C=C(\O2)[C@]2(CO2)CC3(C)C)[C@@H]1C)c1cc(O)ccc1Br as the compound, how does the “inhibition (INH)” value (L1210 [6]) read?
A: Its value is 10% and 25%.

Q: And the inhibition at 10 µg/mL (Nitzschia amabilis)?
A: Its inhibition at 10 µg/mL is 30%.

Q: With CCCCCCCC[C@@H](C/C=C/CCC(=O)NC/C(=C/Cl)[C@]12O[C@H]1[C@H](OC(C)=O)CCC2=O)OC as the compound, how does the inhibition (Homo sapiens) read?
A: Its inhibition is 28%.

Q: And the IC50 (NCI-H460)?
A: The IC50 was 4 µM.

Q: What about the IC50 (N2a; Mus musculus, N2a) of the same compound?
A: Its IC50 is 4 µM.

Q: Which LC50 [1] does the source give for COC(=O)C(CCCCCC(Cl)Cl)C(CCCC#CC=C(Cl)Cl)NC=O (stereo not drawn) here?
A: The LC50 was 1.7 µg/mL.

Q: With CCCCCCCCCCCCCC/C=C/CCC1OC1C(=O)N[C@H](C)CO (stereo partly drawn) as the compound, how does the LC50 [1] read?
A: Its LC50 is 13 µM.

Q: For CO[C@@H](CC[C@H](C)[C@H]1O[C@@]23C[C@H](OC(=O)C[C@@H]([C@@H](C)O)OC(=O)C[C@](OC)(O2)[C@H](C)CC3(C)C)[C@@H]1C)c1cc(O)ccc1Br, which inhibition at 10 µg/mL (Nitzschia amabilis) is on record?
A: The inhibition at 10 µg/mL was 30%.

Q: Which results are given for CCCCCCCC[C@@H](C/C=C/CCC(=O)NC/C(=C/Cl)[C@]12O[C@H]1[C@H](O)CCC2=O)OC?
A: IC50 (NCI-H460): 4 µM; IC50 (N2a; Mus musculus, N2a): 4 µM

Q: With COC(=O)C(CCCCCC(Cl)Cl)C(CCCC#C/C=C/Cl)NC=O (stereo not drawn) as the compound, how does the LC50 [1] read?
A: Its LC50 is 1.7 µg/mL.

Q: Which IC50 (L1210 [2]) does the source give for C=C[C@@](C)(CCC=C(C)C)c1ccc2c3c(c[nH]c13)C[C@@H](CO)NC(=O)[C@@H](C(C)C)N2C here?
A: Its IC50 is 20.4 µM.

Q: And the Ki [3]?
A: The Ki was 0.017 µM.

Q: And the LD100 [4]?
A: The LD100 was 7.5 mg/kg.

Q: With CO/C(=C/C(=O)N1C(=O)C=C[C@@H]1C)CCNC(=O)CC/C=C/C(C)CC/C(=C\Cl)CCCC#CBr (stereo partly drawn) as the compound, how does the IC50 (NCI-H460) read?
A: Its IC50 is 15 µM.

Q: What about the IC50 (N2a; Mus musculus, N2a) of the same compound?
A: The IC50 was 15 µM.

Q: Which inhibition at 10 µg/mL (Nitzschia amabilis) does the source give for CO[C@@H](CC[C@H](C)[C@H]1O[C@]23C[C@H](OC(=O)C[C@@H]([C@@H](C)O)OC(=O)CC(=C(C)CC2(C)C)O3)[C@@H]1C)c1cccc(O)c1 here?
A: The inhibition at 10 µg/mL was 30%.

Q: Which IC50 (HeLa) does the source give for CC[C@@H](C)[C@H]1C(=O)N2CCC[C@H]2C(=O)O[C@H](C(C)(C)C)C[C@@H](C)C[C@H](O)[C@H](C)C2=N[C@@H](/C=C(\C)C(=O)N[C@@H](Cc3ccc(OCCCCCCCN=[N+]=[N-])cc3)C(=O)N(C)[C@@H](C)C(=O)N1C)CS2 here?
A: The IC50 was 0.08 µM.

Q: Which GI50 (HT-29) does the source give for CCCCCCC[C@@H](C/C=C/CCC(=O)N(C)C/C(=C\Cl)C/C(=C\C(=O)N1CC=CC1=O)OC)OC here?
A: The GI50 was 40 µM.

Q: And the GI50 (MDA-MB-231)?
A: The GI50 was 40 µM.

Q: What about the inhibition at 12.5 µg/mL [5] of the same compound?
A: Its inhibition at 12.5 µg/mL is 10%.

Q: And the GI50 (A549)?
A: The GI50 was 40 µM.

Q: With COC(=O)C(CCC#CC=C(Cl)Cl)C(CCCC#CCC(Cl)Cl)NC=O (stereo not drawn) as the compound, how does the LC50 [1] read?
A: The LC50 was 1.7 µg/mL.

Q: For CCCCCCC[C@@H](C/C=C/CCC(=O)N(C)C/C(=C/Cl)C/C(=C\C(=O)N1CC(O)CC1=O)OC)OC (stereo partly drawn), which GI50 (HT-29) is on record?
A: The GI50 was 40 µM.

Q: What about the GI50 (MDA-MB-231) of the same compound?
A: Its GI50 is 40 µM.

Q: What about the inhibition at 12.5 µg/mL [5] of the same compound?
A: Its inhibition at 12.5 µg/mL is 10%.

Q: What about the GI50 (A549) of the same compound?
A: The GI50 was 40 µM.
